According to patent US20090215850A1, “METHOD FOR TREATING CB2 RECEPTOR MEDIATED PAIN” (priority 2008, published 2009):

Legend:
[1] = tested on: male Sprague-Dawley rats; assay: Carrageenan model of inflammatory pain, radiant heat paw withdrawal, compound given before carrageenan (Example 1); format: in vivo, rat; settings: seconds±SEM
Procedure: Intraplantar injection of carrageenan (Cg) in a rodent produces pronounced hypersensitivity to both thermal and mechanical stimuli. The effects of carrageenan are maximal 2-4 hr after administration.
(§1) To assess the ability of test compounds to reverse thermal hyperalgesia, baseline response latencies on a radiant heat (RH) paw stimulator were obtained before an intraplantar injection of carrageenan-λ (200 μL) in male Sprague-Dawley rats (250-350 g in treatment groups of 9 animals each). Only withdrawal responses that were quick hind paw movements (with or without licking of the hind paw) were recorded. Paw movements associated with locomotion or a shifting of weight were not considered a withdrawal response.
(§2) The weight of each animal was recorded on the day of the experiment. Each animal was placed on a warm (approx. body temperature, 30° C.) glass surface and allowed to acclimate to the test chamber for approximately 10-15 minutes. A radiant thermal stimulus (beam of light) was then focused on the sole of each hind paw in turn, and an initial (baseline) response time to thermal stimuli was recorded for each animal. The stimulus intensity (radiant heat at a setting of 5 Amps) that produced 10-15 sec baseline withdrawal latencies was used and a maximum cutoff of 20 sec was imposed. The light stimulus was automatically shut off by a photoelectric relay when the foot moved or when the cut-off time limit was reached.
One treatment group (8 animals each) was injected i.p. with vehicle (5% DMSO and 5% Tween-80 in sterile saline). The other treatment groups (8 animals each) were injected i.p. with 3, 10 or 30 mg/kg Compound 2.
One hour later, withdrawal latencies for the animals administered vehicle were recorded. After assessment, all animals were administered 1% carrageenan (200 μL in sterile saline) subcutaneously into the sub-plantar tissue of the left hind paw to stimulate an acute inflammatory reaction. Three hours later, the response time of the animals to the thermal stimulus was evaluated.

[2] = tested on: male Sprague-Dawley rats; assay: Carrageenan model of inflammatory pain, radiant heat paw withdrawal, compound given 2.5 hr after carrageenan (Example 2); format: in vivo, rat; settings: 30 min after compound, seconds±SEM
Procedure: as §1, §2
The experiment of Example 1 is repeated with the exception that animals are first administered 1% carrageenan (200 μL in sterile saline) subcutaneously into the sub-plantar tissue of the left hind paw to stimulate an acute inflammatory reaction.
Two and a half hours later, withdrawal latencies are assessed (‘post-Cg’). One treatment group is then injected i.p. with vehicle (5% DMSO and 5% Tween-80 in sterile saline). The other treatment groups are injected i.p. with 3, 10 or 30 mg/kg of Compound 2. Thirty minutes after test compound administration withdrawal latencies are recorded.

[3] = target: T1, CB2 receptor (Rattus norvegicus, UniProt Q9QZN9); settings: background statement; cited from earlier work
T1 sequence (Q9QZN9 1-360): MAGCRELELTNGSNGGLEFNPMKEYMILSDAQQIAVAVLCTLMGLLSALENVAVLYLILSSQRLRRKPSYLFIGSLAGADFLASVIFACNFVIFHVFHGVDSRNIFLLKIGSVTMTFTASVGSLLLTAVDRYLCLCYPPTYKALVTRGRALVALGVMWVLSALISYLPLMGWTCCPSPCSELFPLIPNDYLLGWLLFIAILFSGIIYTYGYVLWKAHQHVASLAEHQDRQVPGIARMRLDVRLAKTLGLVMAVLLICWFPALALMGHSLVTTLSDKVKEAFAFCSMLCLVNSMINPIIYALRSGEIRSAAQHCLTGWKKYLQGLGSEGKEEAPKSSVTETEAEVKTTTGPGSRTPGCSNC

Row | Compound | response time (withdrawal latency) to thermal stimulus, 3 hrs post Cg administration ([1]; 3 mg/kg i.p. 1 hr before 1% carrageenan) | response time (withdrawal latency) to thermal stimulus, 3 hrs post Cg administration ([1]; 10 mg/kg i.p. 1 hr before 1% carrageenan) | response time (withdrawal latency) to thermal stimulus, 3 hrs post Cg administration ([1]; 30 mg/kg i.p. 1 hr before 1% carrageenan) | withdrawal latency, 3 hrs post Cg administration ([2]; 3 mg/kg i.p. 2.5 hr after 1% carrageenan) | withdrawal latency, 3 hrs post Cg administration ([2]; 10 mg/kg i.p. 2.5 hr after 1% carrageenan) | withdrawal latency, 3 hrs post Cg administration ([2]; 30 mg/kg i.p. 2.5 hr after 1% carrageenan) | antinociception to thermal stimuli [3]
1 | O=C(NCC12CC3CC(CC(C3)C1)C2)c1nn(C2CCCCC2)c2c1CCCCCC2 [Compound 2, 1-cyclohexyl-4,5,6,7,8,9-hexahydro-1H-cyclooctapyrazole-3-carboxylic acid (adamantan-1-ylmethyl)-amide] | 5.11 ± 0.84 s | 6.18 ± 0.91 s | 14.41 ± 1.75 s | 5.92 ± 1.15 s | 6.88 ± 0.44 s | 8.52 ± 1.08 s | 
2 | CN1CCCCC1Cn1cc(C(=O)c2cc([N+](=O)[O-])ccc2I)c2ccccc21 (stereo not shown) [AM1241] |  |  |  |  |  |  | produces antinociception
